Measurements taken from PMC10687582, “Herpetrione, a New Type of PPARα Ligand as a Therapeutic Strategy Against Nonalcoholic Steatohepatitis” (Research, 2023).
pKd: −log10 of the molar value.

Biological target: T1, PPARα (Homo sapiens, UniProt Q07869)
T1 construct: gene PPARA
T1 sequence (Q07869 200-468 limits assumed): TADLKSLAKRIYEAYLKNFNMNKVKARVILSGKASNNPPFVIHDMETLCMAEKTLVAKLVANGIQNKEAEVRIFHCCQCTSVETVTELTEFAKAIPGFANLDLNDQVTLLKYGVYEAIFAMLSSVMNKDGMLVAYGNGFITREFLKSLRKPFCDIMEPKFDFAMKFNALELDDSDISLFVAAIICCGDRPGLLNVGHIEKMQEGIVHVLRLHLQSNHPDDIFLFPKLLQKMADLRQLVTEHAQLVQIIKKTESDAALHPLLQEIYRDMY
Assay: ITC (KD […]; WT in the mutant comparison […]); SPR KD […]; CETSA and DARTS in HepG2 lysates
Type: binding

Question: With `COc1cc(C(=O)C(CO)c2cc(C3OCC4C(c5ccc(O)c(OC)c5)OCC34)cc(OC)c2O)ccc1O` (stereo not shown) [herpetrione] as the compound, how does the pKd read?
Answer: 5.49
